Results taken from ChEMBL document CHEMBL3882247, “Use of dibenzofuranone derivatives to inhibit kinases” (2013).
The source made the active and inactive calls. No cut-off for these calls is given here.

What was measured:
Casein kinase 2 = Casein kinase 2 (Rattus norvegicus, UniProt P19139); experiment: Inhibition of rat liver CK2 using RRRADDSDDDDD as substrate after 10 mins in presence of [gamma-33P]-ATP
[1] = molecular target: T1, Casein kinase II (Homo sapiens) (UniProt P67870+P68400+P19784); experiment: Inhibition of CK2 in human LNCAP cell lysates after 24 to 48 hrs in presence of [gamma-32P]ATP by radiometric analysis; type: cell-based
LNCaP [2] = experiment: Cytotoxicity against human LNCAP cells assessed as decrease in cell viability after 24 to 72 hrs by MTT assay; type: functional, cell-based
LNCaP [3] = experiment: Cytotoxicity against human LNCAP cells assessed as cell viability at 50 uM after 24 hrs by MTT assay; type: functional
LNCaP [4] = experiment: Cytotoxicity against human LNCAP cells assessed as cell viability at 25 uM after 48 hrs by MTT assay; type: functional
LNCaP [5] = experiment: Cytotoxicity against human LNCAP cells assessed as cell viability at 50 uM after 72 hrs by MTT assay; type: functional
LNCaP [6] = experiment: Cytotoxicity against human LNCAP cells assessed as cell viability at 50 uM after 48 hrs by MTT assay; type: functional
LNCaP [7] = experiment: Induction of apoptosis in human LNCAP cells assessed as PARP cleavage at 25 to 50 uM after 24 to 48 hrs by Western blot analysis; type: functional, cell-based
LNCaP [8] = experiment: Cytotoxicity against human LNCAP cells assessed as cell viability at 25 uM after 24 hrs by MTT assay; type: functional
[9] = molecular target: T1, Casein kinase II (Homo sapiens); experiment: Inhibition of CK2 (unknown origin) assessed as residual activity using E-peptide as substrate at 10 uM incubated for 10 mins prior to testing by capillary electrophoretic analysis; type: protein-complex assay
LNCaP [10] = experiment: Induction of apoptosis in human LNCAP cells assessed as PARP cleavage after 24 to 48 hrs by Western blot analysis; type: functional, cell-based

Chain of Casein kinase 2 (P67874 whole entry): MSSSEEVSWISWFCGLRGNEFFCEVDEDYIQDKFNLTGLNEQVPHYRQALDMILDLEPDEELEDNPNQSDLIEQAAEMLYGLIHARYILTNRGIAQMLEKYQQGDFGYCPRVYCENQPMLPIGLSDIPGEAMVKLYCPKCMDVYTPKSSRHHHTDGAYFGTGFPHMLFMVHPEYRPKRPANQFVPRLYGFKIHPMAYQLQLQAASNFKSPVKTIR
Chain of Casein kinase 2 (P19139 whole entry): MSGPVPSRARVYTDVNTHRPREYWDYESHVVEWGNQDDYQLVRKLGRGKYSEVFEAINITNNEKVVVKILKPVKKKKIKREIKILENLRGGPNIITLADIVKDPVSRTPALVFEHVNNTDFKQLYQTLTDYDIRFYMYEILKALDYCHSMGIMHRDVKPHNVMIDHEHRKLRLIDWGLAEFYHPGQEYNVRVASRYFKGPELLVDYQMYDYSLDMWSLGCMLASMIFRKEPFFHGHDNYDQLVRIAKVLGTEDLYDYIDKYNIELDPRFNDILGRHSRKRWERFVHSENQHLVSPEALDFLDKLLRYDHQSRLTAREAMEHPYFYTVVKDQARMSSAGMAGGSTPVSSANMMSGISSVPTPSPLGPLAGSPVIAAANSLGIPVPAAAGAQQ

SMILES: O=c1oc2c(O)c(O)cc3c(=O)oc4c(O)c(O)cc1c4c23 [ELLAGIC ACID]
- IC50 (Casein kinase 2): 40 nM

SMILES: COc1ccc(/N=C/c2c(O)ccc3c2oc2cc(Cl)c(O)c(Cl)c23)cc1
- inhibition [1]: Active
- Activity (LNCaP [2]): Dose-dependent effect

SMILES: COc1ccc(N/C=C2\C(=O)CCc3c2oc2cc(Cl)c(O)c(Cl)c32)cc1
- inhibition [1]: Active
- Activity (LNCaP [2]): Dose-dependent effect

SMILES: Brc1c(Br)c(Br)c2[nH]nnc2c1Br
- Activity (LNCaP [3]): Active
- Activity (LNCaP [4]): Active
- Activity (LNCaP [5]): Active
- Activity (LNCaP [6]): Active
- Activity (LNCaP [7]): Active
- Activity (LNCaP [8]): Active
- Activity (LNCaP [2]): Dose-dependent effect

SMILES: CC(=O)Oc1c(Cl)c(Cl)c2oc(C(=O)C=C(C)C)c(N)c2c1C#N
- Activity [9]: 7%

SMILES: CC(C)=CC(=O)c1oc2c(Cl)c(Cl)c(O)c(C#N)c2c1N
- Activity [9]: < 4%

SMILES: Cc1ccc(N/C=C2\C(=O)CCc3c2oc2c(Cl)c(Cl)c(O)cc32)cc1
- Activity [9]: < 4%
- Activity (LNCaP [10]): Dose-dependent effect
- Activity (LNCaP [2]): Dose-dependent effect

SMILES: CCOC(=O)c1oc2c(Cl)c(Cl)c(OC(C)=O)c(C#N)c2c1N
- Activity [9]: 31%
